Assay results taken from PubChem BioAssay (NCI).
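Results reflect a 48-hour exposure of cells in 96-well plates to compound at five concentrations. Abbreviation: GI50, concentration required for 50% inhibition of growth. At the TGI there is no net growth.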 Where a SMILES comes first, the peptide text is derived from it. [ ]: non-standard residue; d: D form. The star is where a group is joined. Ac5c = NC1(C(=O)O)CCCC1; Cbz = O=C(OCc1ccccc1)*; Boc = CC(C)(C)OC(=O)*; tBu = CC(C)(C)*

How the values were obtained:
Experiment in all cases: DTP human tumour cell line panel, 48 h
[1] = system: UACC-257 melanoma
[2] = system: MALME-3M melanoma
[3] = system: HOP-62 NSCLC
[4] = system: SNB-19 CNS
[5] = system: HL-60(TB) leukemia
[6] = system: MDA-MB-231 breast
[7] = system: LOX IMVI melanoma
[8] = system: K-562 leukemia
[9] = system: SK-OV-3 ovarian
[10] = system: HS 578T breast
[11] = system: BT-549 breast
[12] = system: SR leukemia
[13] = system: NCI-H23 lung
[14] = system: A498 renal
[15] = system: SK-MEL-5 melanoma
[16] = system: CAKI-1 renal
[17] = system: A549 NSCLC
[18] = system: HCT-15 colon
[19] = system: OVCAR-3 ovarian
[20] = system: SW-620 colon
[21] = system: HCC-2998 colon
[22] = system: 786-0 renal
[23] = system: HT29 colon
[24] = system: M14 melanoma
[25] = system: UO-31 renal
[26] = system: SNB-75 CNS
[27] = system: MOLT-4 leukemia
[28] = system: U251 CNS
[29] = system: SK-MEL-28 melanoma
[30] = system: UACC-62 melanoma
[31] = system: TK-10 renal
[32] = system: NCI-H522 lung
[33] = system: T-47D breast
[34] = system: EKVX NSCLC
[35] = system: COLO 205 colon
[36] = system: CCRF-CEM leukemia
[37] = system: OVCAR-8 ovarian
[38] = system: RXF 393 renal
[39] = system: ACHN renal
[40] = system: HOP-92 NSCLC
[41] = system: MCF7 breast
[42] = system: OVCAR-4 ovarian
[43] = system: SF-268 CNS
[44] = system: KM12 colon
[45] = system: SF-295 CNS
[46] = system: SN12C renal
[47] = system: SK-MEL-2 melanoma
[48] = system: RPMI-8226 leukemia
[49] = system: IGROV1 ovarian
[50] = system: NCI/ADR-RES ovarian
[51] = system: OVCAR-5 ovarian
[52] = system: NCI-H460 lung
[53] = system: HCT-116 colon
[54] = system: SF-539 CNS
[55] = system: PC-3 prostate
[56] = system: NCI-H226 lung
[57] = system: DU-145 prostate
[58] = system: MDA-MB-435

COc1ccc(OC)c(CC(=O)c2ccc(O)c(C(=O)NCCc3ccc(F)cc3)c2)c1
TGI [1]: 44.8 µM | TGI [2]: 6.9 µM | TGI [3]: 5.63 µM | TGI [4]: 52.5 µM | TGI [5]: 7.29 µM | TGI [6]: 20.4 µM | TGI [7]: 27 µM | TGI [8]: > 100 µM | TGI [9]: 9.96 µM | TGI [10]: 8.69 µM | TGI [11]: 38.5 µM | TGI [12]: 10 µM | TGI [13]: 14.2 µM | TGI [14]: 47 µM | TGI [15]: 11.4 µM | TGI [16]: 14.5 µM | TGI [17]: 37.6 µM | TGI [18]: 17.1 µM | TGI [19]: 3.17 µM | TGI [20]: > 100 µM | TGI [21]: 13.1 µM | TGI [22]: 24.5 µM | TGI [23]: 30.5 µM | TGI [24]: 9.2 µM | TGI [25]: 23.4 µM | TGI [26]: 6.9 µM | TGI [27]: 17.4 µM | TGI [28]: 13.7 µM | TGI [29]: > 100 µM | GI50 [30]: 4.01 µM | TGI [30]: 21.6 µM | TGI [31]: 45.8 µM | TGI [32]: 11.2 µM | TGI [33]: 8.44 µM | TGI [34]: 36.2 µM | TGI [35]: 31.7 µM | GI50 [36]: 2.4 µM | TGI [36]: 6.65 µM | TGI [37]: 21.8 µM | TGI [38]: 2.9 µM | TGI [39]: 56.9 µM | TGI [40]: 41.4 µM | TGI [41]: 24.6 µM | TGI [42]: 31 µM | TGI [43]: 25 µM | TGI [44]: 13.9 µM | TGI [45]: 10.1 µM | GI50 [46]: 4.26 µM | TGI [46]: 19.4 µM | TGI [47]: 12.3 µM | TGI [48]: 22.9 µM | TGI [49]: 18.1 µM | TGI [50]: 8.79 µM | TGI [51]: > 100 µM | TGI [52]: 34 µM | GI50 [53]: 4.05 µM | TGI [53]: 19.9 µM

Cc1c(/C=N\NC(=S)N(C)CCN(C)C(=S)N/N=C\c2c(C)n(C)n(-c3ccccc3)c2=O)c(=O)n(-c2ccccc2)n1C
TGI [1]: > 100 µM | TGI [2]: > 100 µM | TGI [3]: > 100 µM | TGI [4]: > 100 µM | TGI [54]: > 100 µM | TGI [55]: > 100 µM | TGI [6]: > 100 µM | TGI [56]: > 100 µM | TGI [9]: > 100 µM | TGI [10]: > 100 µM | TGI [11]: > 100 µM | TGI [12]: > 100 µM | TGI [13]: > 100 µM | TGI [14]: > 100 µM | TGI [15]: > 100 µM | TGI [16]: > 100 µM | TGI [17]: > 100 µM | TGI [18]: > 100 µM | TGI [57]: > 100 µM | TGI [19]: > 100 µM | TGI [20]: > 100 µM | TGI [21]: > 100 µM | TGI [22]: > 100 µM | TGI [23]: > 100 µM | TGI [24]: > 100 µM | TGI [25]: > 100 µM | TGI [26]: > 100 µM | TGI [27]: > 100 µM | TGI [28]: > 100 µM | TGI [30]: > 100 µM | TGI [31]: > 100 µM | TGI [32]: > 100 µM | TGI [33]: > 100 µM | TGI [34]: > 100 µM | TGI [35]: > 100 µM | TGI [38]: > 100 µM | TGI [39]: > 100 µM | TGI [58]: > 100 µM | TGI [40]: > 100 µM | TGI [42]: > 100 µM | TGI [43]: > 100 µM | TGI [44]: > 100 µM | TGI [45]: > 100 µM | TGI [47]: > 100 µM | TGI [50]: > 100 µM | TGI [51]: > 100 µM | TGI [52]: > 100 µM | TGI [53]: > 100 µM

COC(=O)C1(NC(=O)C(Cc2ccccc2)NC(=O)C(NC(=O)C(CCCCNC(=O)OC(C)(C)C)NC(=O)C(Cc2c[nH]c3ccccc23)NC(=O)C(Cc2ccccc2)NC(=O)OCc2ccccc2)C(C)OC(C)(C)C)CCCC1 (stereo unspecified) (Cbz-FWK(Boc)T(tBu)F[Ac5c]-OMe; configuration not given here)
TGI [1]: > 100 µM | TGI [56]: > 100 µM | TGI [13]: > 100 µM | TGI [40]: > 100 µM

CC(OC(C)(C)C)C(NC(=O)C(CCCCNC(=O)OC(C)(C)C)NC(=O)C(Cc1c[nH]c2ccccc12)NC(=O)C(N)Cc1ccccc1)C(=O)NC(Cc1ccccc1)C(=O)NC1(C(=O)O)CCCC1 (stereo unspecified) (H-FWK(Boc)T(tBu)F[Ac5c]-OH; configuration not given here)
TGI [1]: > 100 µM | TGI [56]: > 100 µM | TGI [13]: > 100 µM | TGI [40]: > 100 µM

Oc1ccc(-c2nc(-c3ccc(F)cc3)c(-c3ccncc3)[nH]2)cc1
GI50 [1]: 13.9 µM | TGI [1]: 63.1 µM | GI50 [2]: 2.45 µM | TGI [2]: 9.13 µM | GI50 [3]: 36.7 µM | TGI [3]: > 100 µM | GI50 [4]: 35.3 µM | TGI [4]: > 100 µM | GI50 [5]: 18.1 µM | TGI [5]: 67.1 µM | GI50 [54]: 25.7 µM | TGI [54]: > 100 µM | GI50 [55]: 14.1 µM | TGI [55]: > 100 µM | GI50 [6]: 11.2 µM | TGI [6]: > 100 µM | GI50 [7]: 28.6 µM | TGI [7]: > 100 µM | GI50 [56]: 28.3 µM | TGI [56]: > 100 µM | GI50 [8]: 15.9 µM | TGI [8]: > 100 µM | GI50 [9]: 5.21 µM | TGI [9]: 80.3 µM | GI50 [11]: 17.7 µM | TGI [11]: 64 µM | GI50 [12]: 6.98 µM | TGI [12]: 52.8 µM | GI50 [13]: 36.2 µM | TGI [13]: > 100 µM | GI50 [14]: 16.7 µM | TGI [14]: 48.5 µM | GI50 [15]: 4.73 µM | TGI [15]: 29.6 µM | GI50 [17]: 25.8 µM | TGI [17]: > 100 µM | GI50 [18]: 13.2 µM | TGI [18]: > 100 µM | GI50 [57]: 15.4 µM | TGI [57]: > 100 µM | GI50 [19]: 15 µM | TGI [19]: 86.9 µM | GI50 [20]: 32.1 µM | TGI [20]: > 100 µM | GI50 [21]: 36.7 µM | TGI [21]: > 100 µM | GI50 [22]: 12.5 µM | TGI [22]: > 100 µM | GI50 [23]: 3.78 µM | TGI [23]: > 100 µM | GI50 [24]: 4.02 µM | TGI [24]: 20.3 µM | GI50 [25]: 3.44 µM | TGI [25]: 20.2 µM | GI50 [26]: 8.86 µM | TGI [26]: > 100 µM | GI50 [27]: 7.97 µM | TGI [27]: 32.5 µM | GI50 [28]: 25.5 µM | TGI [28]: > 100 µM | GI50 [29]: 6.05 µM | TGI [29]: 84.7 µM | GI50 [30]: 3 µM | TGI [30]: 15.1 µM | GI50 [31]: 7.89 µM | TGI [31]: > 100 µM | GI50 [33]: 8.75 µM | TGI [33]: 63 µM | GI50 [34]: 13.6 µM | TGI [34]: > 100 µM | GI50 [35]: 4.77 µM | TGI [35]: 40.5 µM | GI50 [36]: 9.62 µM | TGI [36]: 59.8 µM | GI50 [37]: 22.1 µM | TGI [37]: > 100 µM | GI50 [38]: 8.92 µM | TGI [38]: 43.2 µM | GI50 [39]: 3.97 µM | TGI [39]: > 100 µM | GI50 [58]: 6.8 µM | TGI [58]: 35.1 µM | GI50 [40]: 17.2 µM | TGI [40]: > 100 µM | GI50 [41]: 19.4 µM | TGI [41]: > 100 µM | GI50 [42]: 16.5 µM | TGI [42]: > 100 µM | GI50 [43]: 19.3 µM | TGI [43]: > 100 µM | GI50 [44]: 23 µM | TGI [44]: 72.3 µM | GI50 [45]: 20.2 µM | TGI [45]: > 100 µM | GI50 [46]: 14.9 µM | TGI [46]: > 100 µM | GI50 [48]: 11.7 µM | TGI [48]: 38.2 µM | GI50 [49]: 4.3 µM | TGI [49]: 29.4 µM | GI50 [50]: 35.6 µM | TGI [50]: > 100 µM | GI50 [51]: 59.3 µM | TGI [51]: > 100 µM | GI50 [52]: 18.8 µM | TGI [52]: 59.7 µM | GI50 [53]: 17.4 µM | TGI [53]: 53 µM
